{
  "source": "ChEMBL document CHEMBL3612026",
  "about": "“Biological activity of N(4)-boronated derivatives of 2'-deoxycytidine, potential agents for boron-neutron capture therapy” (Bioorg Med Chem, 2015)",
  "key": {"[1]": {"experiment": "Cytotoxicity against human SCC15 cells after 48 hrs by neutral red assay", "assay_type": "functional, cell-based", "conditions": "SCC-15, 48 h"}, "[2]": {"experiment": "Cytotoxicity against human SCC15 cells after 48 hrs by XTT assay", "assay_type": "functional, cell-based", "conditions": "SCC-15, 48 h"}, "[3]": {"test_system": "BJ", "experiment": "Cytotoxicity against human BJ cells after 48 hrs by neutral red assay", "assay_type": "cell-based"}, "[4]": {"test_system": "BJ", "experiment": "Cytotoxicity against human BJ cells after 48 hrs by XTT assay", "assay_type": "cell-based"}, "[5]": {"test_system": "SCC-15", "experiment": "Induction of apoptosis in human SCC15 cells assessed as induction of […] fragmentation at 20 to 40 mM after 48 hrs by DAPI staining-based fluorescence assay", "assay_type": "functional, cell-based"}, "[6]": {"test_system": "BJ", "experiment": "Induction of apoptosis in human BJ cells assessed as induction of […] fragmentation at 5 to 40 mM after 48 hrs by DAPI staining-based fluorescence assay", "assay_type": "cell-based", "conditions": "40000 µM"}, "[7]": {"test_system": "SCC-15", "experiment": "Induction of apoptosis in human SCC15 cells assessed as induction of […] fragmentation at 20 to 40 mM after 48 hrs by DAPI staining-based laser scanning confocal microscopic analysis", "assay_type": "functional, cell-based"}, "[8]": {"test_system": "BJ", "experiment": "Induction of apoptosis in human BJ cells assessed as induction of […] fragmentation at 20 to 40 mM after 48 hrs by DAPI staining-based laser scanning confocal microscopic analysis", "assay_type": "cell-based", "conditions": "40000 µM"}, "[9]": {"test_system": "SCC-15", "experiment": "Binding affinity to DNA in human SCC-15 cells at 1 mM after 5 days by laser desorption/ionization mass spectrometric analysis", "assay_type": "cell-based"}},
  "note": "Active and inactive are the calls of the source. The calls are words filed in the database; no cut-off is given here.",
  "data": [
    {"smiles": "CC1(C)OB(CNc2ccn([C@H]3C[C@@H](O)[C@@H](CO)O3)c(=O)n2)OC1(C)C", "values": [
      {"measurement": "IC50", "setting": "[1]", "value": 16.4, "unit": "mM"},
      {"measurement": "IC50", "setting": "[2]", "value": 18.8, "unit": "mM"},
      {"measurement": "IC50", "setting": "[3]", "value": 49.5, "unit": "mM"},
      {"measurement": "IC50", "setting": "[4]", "value": 45.1, "unit": "mM"},
      {"measurement": "Activity", "setting": "[5]", "value": "Active"},
      {"measurement": "Activity", "setting": "[6]", "value": "Non-toxic"},
      {"measurement": "Activity", "setting": "[7]", "value": "Active"},
      {"measurement": "Activity", "setting": "[8]", "value": "Non-toxic"},
      {"measurement": "Activity", "setting": "[9]", "value": "Active"}
    ]}
  ]
}
